From patent US20060099170A1, “Compositions for inducing increased levels of beta-chemokines and methods of use therefor” (priority 2002, published 2006)
Where two headings read alike, the source gives them in different places.

Columns and labels:
CD8 lymphocytes [1] = test: β-chemokine levels (ELISA) in cultures of purified activated CD8 lymphocytes; type: cell-based, human
activated PBMCs [2] = test: β-chemokine levels (ELISA) in supernatants of activated PBMCs cultured with cell cycle arresting compounds; type: cell-based, human
activated PBMCs [3] = test: Cell number / proliferation of activated PBMCs (trypan blue); type: cell-based, human
Procedure: (§1) Cell proliferation was measured by the trypan blue staining viability test, [^3H]thymidine incorporation in DNA, and the 3-(4,5-dimethylthiazol-2-yl)-2,5-diphenyl tetrazolium bromide (MTT) assay (Roche).
To this end, β-chemokine levels (production or availability) by activated PBMCs cultured in the presence of HU was investigated. HU is a G1 cytostatic drug that, by depleting intracellular nucleotide pools, arrests cell cycle progression in late G1 (Lori, et al., 1994). […] In the representative experiment depicted in FIG. 2, day 8 chemokine levels in cultures containing 100 μM HU were increased 3.4-fold for RANTES, 5.4-fold for MIP-1α, and 4-fold for MIP-1β compared with the untreated control. Because HU inhibits lymphocyte proliferation, chemokine values also were expressed as chemokine amount per viable cell. As expected, cell numbers were lower in the presence of the drug (FIG. 2C).
The agents evaluated were SB, APH, RC, and OL. SB and APH arrest the cell cycle in early and late G1, respectively (Korin, et al., 1998; Koostra, et al., 2000). RC and OL are purine-derivative drugs that arrest cell cycle progression in late G1 through inhibition of cyclin-dependent kinases (CDKs) (Gray, et al., 1999). […] The number of viable cells and chemokine levels are depicted. […]

HIV-1 ADA = test: Antiviral activity of TAK-779 with or without RAPA in PBMCs (p24); type: cell-based
Procedure: For infection of PBMCs, fresh donor PBMCs were cultured for 7 days in medium containing IL-2. On day 7, cells were exposed to the virus for 3 h. Nonadsorbed virus was removed by washing cells with PBS three times. Infected cells were cultured in IL-2 medium. Infection of MDMs was carried out as described before (Pemo, et al. 1993). Unless otherwise indicated, PBMCs were infected by using a moi of 0.001, and monocyte-derived macrophages (MDMs) were infected by using a moi of 0.002. Virus growth was monitored in culture supernatants by measuring p24 antigen levels by ELISA (NEN) or by measuring viral RT activity in an RT assay (Willey, et al., 1988).
To test this hypothesis, donor PBMCs were cultured in IL-2 medium in the absence or presence of RAPA (1, 10, and 100 nM). […] Infected cells were cultured in the presence of RAPA (same concentration as during pretreatment) plus 0.1 nM TAK-779. Virus production was determined 7 days after infection (FIG. 11).

CD8 lymphocytes [4] = type: cell-based, human
Procedure: as §1
The impact of cell cycle arrest in β-chemokine levels was evaluated by measuring chemokine levels in supernatants of cell cultures containing compounds known to cause cell cycle arrest. Levels of the β-chemokines RANTES, MIP-1α, and MIP-1β were measured by using commercial ELISA kits (R &D Systems). Cell cycle arrest in G1 was induced by culturing of the cells in the presence of aphidicolin (APH), sodium butyrate (SB), hydroxyurea (HU), roscovitine (RC), or olomoucine (OL). Arrest in late S phase was induced by culture of cells in the presence of resveratrol. G2 cycle arrest was induced by the compounds nocodazole and Colcemid. All compounds were purchased from Sigma except RC and OL, which were from Calbiochem. Arrest of cell cycle progression in the presence of G1 cytostatic agents was measured by propidium iodide staining followed by fluorescence-activated cell sorter (FACS) analysis (Noguchi, et al., 1991). This method may be used to test any compound for ability to arrest the G1 phase in a cell cycle.
In the experiments described thus far, total PBMCs had been used. […] Negatively selected CD8^+ lymphocytes were activated by anti-CD3 plus IL-2 treatment for 3 days. Activated cells were cultured in the presence of IL-2 and HU (100 and 200 μM) for 24 or 48 h, time points at which cell proliferation and supernatant chemokine levels were assayed. Cell proliferation was determined by trypan blue staining, [^3H]thymidine incorporation in DNA, and percentage of cells in S phase as assessed by propidium iodide staining (FIG. 4). […] Similarly, the percentage of cells in S phase increased in the absence of HU, whereas it decreased in its presence. […]
To investigate whether increased levels of supernatant chemokines upon cell cycle arrest are cell cycle phase-specific, the effect of G2 arrest in chemokine production next was evaluated. […]

HIV-1 BaL = test: HIV-1-suppressive activity of supernatants from HU-treated PBMCs, infected PBMCs, p24; type: cell-based; details: 100 μM HU in fresh medium, day 7 after infection
Procedure: The antiviral activity of the supernatants collected from cultures of PBMCs that had been exposed to 100 μM HU for 7 days [supernatants referred to as conditioned medium (CM)] was evaluated in PBMCs infected with HIV-1 BaL and HIV-1 IIIb. Briefly, PHA-activated PBMCs were infected with each virus at 100 tissue culture 50% infective dose units (TCID50)/10^6 PBMCs or 10 TCID50/10^6 PBMCs for 2 h at 37° C. Infected cells were cultured in IL-2 medium alone, IL-2 medium with 100 μM HU, IL-2 medium containing 50% supernatant from HU-treated PBMCs (CM/HU), or IL-2 medium containing 50% supernatant from control-treated PBMCs (CM/control). On day 3 after infection, culture medium was replaced with fresh medium of the same kind as on day 1. Viral growth (measured by p24 levels in the supernatant) and cell viability (assayed by MTT) were determined on day 7 after infection.
These culture supernatants were referred to as CM/HU. Culture supernatants from activated PBMCs cultured under the same conditions in the absence of HU (CM/control) also were harvested.
The antiviral activity of the CM was evaluated in the infection of PBMCs with HIV-1 BaL (a prototype R5-using virus) and HIV-1 IIIb (a prototype X4-using virus). […] Virus replication and cell viability were measured on day 7 after infection.

HIV = test: Cyclic therapy trial with HU during off-ARV periods: viral load; type: in vivo; details: for Viral load: 7 days on ARV's alternated by 14 days off ARV's but on HU
Excerpt: (§2) The protocol used in the present invention expands on the NIH's concept of Cyclic Therapy. Cyclic therapy is a strategy in which patients can maintain viral suppression despite alternating between 7 days of taking ARV medications and 7 days of taking no medications. Compared to the NIH trail of short cycle of 7 days intermittently off therapy, in our trial, the G1 cycle agent HU is being used to maintain viral suppression during an extended off medication cycle of 14-28 days. The off period is followed by 7 days of combination antiretroviral therapy. This has allowed study participants to be on ⅔ fewer medications but still maintain viral control and immune reconstitution.
(§3) Four patients are enrolled in the trial. Patients in this study have benefited from decreased drug related toxicities, relief from difficult financial sacrifices to stay on ARV's, and improved adherence to medications.

CD4 = test: Cyclic therapy trial with HU during off-ARV periods: absolute CD4 count; type: in vivo, human; details: 7 days on ARV's alternated by 14 days off ARV's but on HU
Excerpt: as §2, §3

[5] = at G1 cytostatic concentrations of the drug, PHA-activated PBMCs
[6] = 100 μM HU, day 8, levels as ng/ml

CN[C@H]1CCc2cc(OC)c(OC)c(OC)c2-c2ccc(OC)c(=O)cc21 [Colcemid]
chemokine content on G2 cycle arrest (CD8 lymphocytes [1]; same as nocodazole (lower than untreated), data not shown): same results

C[C@@]1(CO)[C@H](O)CC[C@@]2(C)[C@H]1CC[C@H]1C[C@@H]3C[C@@]12CC[C@]3(O)CO [APH, aphidicolin]
chemokine values (activated PBMCs [2]; 0.5 μM APH, PHA-activated PBMCs): Increased chemokine values
cell proliferation (activated PBMCs [3]; 0.5 μM APH): reduced cell proliferation

CCCC(=O)[O-].[Na+] [SB, sodium butyrate]
chemokine levels (activated PBMCs [2]; [5]): increased chemokine levels

Oc1ccc(C=Cc2cc(O)cc(O)c2)cc1 [resveratrol]
chemokine levels on cell cycle arrest in late S (CD8 lymphocytes [1]; 10 μM resveratrol, data not shown): lower than the untreated control

CC[C@H](CO)Nc1nc(NCc2ccccc2)c2ncn(C(C)C)c2n1 [RC, roscovitine]
chemokine levels (activated PBMCs [2]; [5]): increased chemokine levels

Cc1ccc(-c2ccc3c(c2)C=C(C(=O)Nc2ccc(C[N+](C)(C)C4CCOCC4)cc2)CCC3)cc1.[Cl-] [TAK-779]
inhibition of virus replication (HIV-1 ADA; 0.1 nM TAK-779, absence of RAPA, day 7): 21%
virus inhibition due to TAK-779 (HIV-1 ADA; 0.1 nM TAK-779 in presence of 1 nM RAPA): 74.5%
virus inhibition due to TAK-779 (HIV-1 ADA; 0.1 nM TAK-779 in presence of 10 nM RAPA): 89%
virus inhibition due to TAK-779 (HIV-1 ADA; 0.1 nM TAK-779 in presence of 100 nM RAPA): 96%

NC(=O)NO [HU, hydroxyurea]
chemokine levels (activated PBMCs [2]): increased chemokine levels
MIP-1α level increase compared with untreated control (activated PBMCs [2]; [6]): 5.4 fold
MIP-1β level increase compared with untreated control (activated PBMCs [2]; [6]): 4 fold
RANTES level increase compared with untreated control (activated PBMCs [2]; [6]): 3.4 fold
MIP-1α level increase, ng per 10^6 cells (activated PBMCs [2]; 100 μM HU, per viable cell): 25.4 fold
MIP-1β level increase, ng per 10^6 cells (activated PBMCs [2]; 100 μM HU, per viable cell): 18.4 fold
RANTES level increase, ng per 10^6 cells (activated PBMCs [2]; 100 μM HU, per viable cell): 16.2 fold
concentrations (ng/ml) of RANTES, MIP-1α, and MIP-1β in the culture supernatants (activated PBMCs [2]; PHA-activated PBMCs, HU for 14 days, dose-dependent): increased concentrations
cell numbers (activated PBMCs [3]; PHA-activated PBMCs in presence of HU, trypan blue): lower
MIP-1α level increase (CD8 lymphocytes [1]; 100 μM HU, 48 h): 3.7 fold
MIP-1β level increase (CD8 lymphocytes [1]; 100 μM HU, 48 h): 4.7 fold
RANTES level increase (CD8 lymphocytes [1]; 100 μM HU, 48 h): 1.9 fold
chemokine production levels (CD8 lymphocytes [1]; 200 μM HU, 48 h, compared with 100 μM): Slightly lower increases
percentage of cells in S phase (CD8 lymphocytes [4]; HU 100 and 200 μM, propidium iodide): decreased
cell number and thymidine incorporation between 24 and 48 h (CD8 lymphocytes [4]; HU 100 and 200 μM, doubled in absence of HU): remained constant or decreased
inhibition of HIV-1 BaL replication (HIV-1 BaL): < 10%
inhibition at 100 µM (HIV-1 BaL; Human immunodeficiency virus 1, BAL, PBMC, 168 h, read-out: inhibition of HIV-1 BaL replication): 8%
Viral load (HIV; Patient 1, 6 wks): 72 Copies/ml
Viral load (HIV; Patient 1, 9 wks): 158 Copies/ml
Viral load (HIV; Patient 1, 12 wks): 114 Copies/ml
Viral load (HIV; Patient 1, 18 wks): 973 Copies/ml
Viral load (HIV; Patient 1, column head 3 wks off continuous therapy): 0 Copies/ml
Viral load (HIV; Patient 1, column head 15 wks): 322 Copies/ml
Viral load (HIV; Patient 1, column head 21 wks): 0 Copies/ml
Viral load (HIV; Patient 2, 3 wks): 0 c/ml
Viral load (HIV; Patient 2, 6 wks): 0 c/ml
Viral load (HIV; Patient 2, 9 wks): 0 c/ml
Viral load (HIV; Patient 2, 12 wks): 0 c/ml
Viral load (HIV; Patient 2, 18 wks): 0 c/ml
Viral load (HIV; Patient 2, column head 15 wks): 0 c/ml
Viral load (HIV; Patient 3, 3 wks): 0 c/ml
Viral load (HIV; Patient 3, 6 wks): 0 c/ml
Viral load (HIV; Patient 3, 9 wks): 0 c/ml
Viral load (HIV; Patient 3, 12 wks): 0 c/ml
viral suppression despite discontinuation of primary anti-retroviral drugs (HIV; all three patients, at least 3 cycles of treatment): persistent viral suppression
Absolute CD4 count (CD4; Patient 1, 3 wks): 377
Absolute CD4 count (CD4; Patient 1, column head 21 wks): 518
Absolute CD4 count (CD4; Patient 2, 3 wks): 1256
Absolute CD4 count (CD4; Patient 2, 18 wks): 973
Absolute CD4 count (CD4; Patient 3, 3 wks): 934
Absolute CD4 count (CD4; Patient 3, 12 wks): 995

COC(=O)Nc1nc2ccc(C(=O)c3cccs3)cc2[nH]1 [nocodazole]
chemokine content (CD8 lymphocytes [1]; 0.01 μg/ml nocodazole, 48 h, G2 arrest): lower than in the untreated controls
cell cycle distribution (CD8 lymphocytes [4]; 0.01 μg/ml nocodazole, 48 h): accumulation of cells in G2
